Series [1] can be described thus: solubility of aluminum phthalocyanines in water and solvents. To be noted: for solubility in polar, protic solvents such as methanol: effect of axial ligand L. An excerpt: The following "R" substituents (R₁ and/or R₂) bound to the phthalocyanine macrocycle 1 can serve as suitable water-solubilizing moieties: sulfonic acid groups (-SO₃H), sulfonate groups (-SO₃⁻, X⁺), carboxylic acid groups (-CO₂H), carboxylate groups (-CO₂⁻, X⁺), phosphoric acid groups (-PO₄H₂), phosphate groups (-PO₄⁻⁻, 2X⁺), phosphonate groups (-PO₃H or -PO₃⁻, X⁺), hydroxy or phenoxy groups (-OH), amino groups (-NH₂), and ammonium and pyridinium groups (-NR₄⁺, X⁻).
To enhance water solubility, L should be -OZ or -NZ₂ wherein Z is selected from among hydrogen, alkyl, acyl, and silyl groups, the latter three preferably being charged.

The format of series [2] is physicochemical. As to the method:
The phthalocyanines are thermally stable, and are often purified by sublimation at temperatures greater than 400°C. Chemically, the phthalocyanines are resistant to acidic or basic hydrolysis, oxidation, and reduction.

A short description of series [3]: fluorescence and UV-VIS spectroscopy of phthalocyanine derivatives. Type of series: physicochemical. An excerpt:
As a family of chromophores the metallophthalocyanines are characterized by a very narrow and strong absorption in the red envelope centered around 670 nm (Eo=230,000) and a broad and less intense absorption (Eo=60,000) at around 350 nm.
It is contemplated that other metal atoms (M) with +3 valences or higher may take on an axial ligand(s) in the phthalocyanine macrocycle, thereby conferring a similar resistance to aggregation in aqueous solution. For use as fluorescent species, the metal should be diamagnetic and have a lower atomic weight than that of […], so as to avoid a heavy-atom quenching effect; suitable metal atoms for the latter purpose include aluminum, silicon, phosphorus, gallium, germanium, and tin. […] Both processes give rise to radiationless deactivation of the excited state and serve to decrease the fluorescent quantum yield.
The ultimate sensitivity of a fluorogenic enzyme assay is determined by the spectral properties of the generated fluorophore.

Series [4] concerns antimorphine monoclonal antibody. The experiment in a line: competition experiment with antimorphine monoclonal antibody and tritium-labeled morphine (relative immunoaffinity). Type of series: binding. The procedure:
The relative immunoaffinity of morphine, the amino morphine analog, and the amino-morphine derivative of mono-PABA-sulfonyl aluminum phthalocyanine disulfonate was determined in a competition experiment with antimorphine monoclonal antibody and tritium-labeled morphine.

The conditions of series [5]: λmax 678.5 nm, in chloronaphthalene; cited from earlier work.

Where two headings read alike, the source gives them in different places.

As to `[OH][Al]1[n]2c3c4ccccc4c2N=C2N=C(N=c4c5ccccc5c([n]41)=NC1=NC(=N3)c3ccccc31)c1ccccc12` [hydroxyaluminum phthalocyanine], the “solubility in polar, protic solvents such as methanol” value in series [1] is reported as “soluble in polar, protic solvents such as methanol”.
For aluminum phthalocyanine trisulfonate, the solubility in water result in series [1] was “high water solubility”. Moreover, the photochemical stability entry in series [2] is given as “photochemically inert”. In series [3], the Stokes shift is 335 nm, the fluorescence emission lifetime is recorded as 5 ns and the polarization coefficient was determined as 0.005. In addition, in series [3] (aggregated), the “quantum yield when aggregated” value is given as below 0.02 and the “quantum yield when aggregated, of its original value” was “less than 4%”. Moreover, in series [3] (excitation at 350 nm), the emission wavelength was 680 nm.
Regarding “3-(4-aminobutyl)morphine [amino morphine]”, in series [4] (relative affinity of antimorphine monoclonal antibody for competitor versus tritium-labeled morphine), the “Relative Affinity” value is on record as 1.
As to `CN1CC[C@]23c4c5ccc(O)c4O[C@H]2[C@@H](O)C=C[C@H]3[C@H]1C5` [morphine, reference compound], the “Relative Affinity” value in series [4] stood at 1.
“copper(II)phthalocyanine trisulfonate [reference compound]”: the “fluorescence quantum yield relative to aluminum(III)phthalocyanine trisulfonate” value in series [3] (comparative example) was “more than 200 times less”.
For `c1ccc2c(c1)C1=NC2=Nc2c3ccccc3c3[n]2[Cu][n]2c(c4ccccc4c2=NC2=NC(=N3)c3ccccc32)=N1` [compound 9, Copper phthalocyanine], the “molar absorptivity ε” value in series [5] is reported as 218,500.
For the compound `[Cl][Al]1[n]2c3c4ccccc4c2/N=C2N=C(/N=c4/c5ccccc5/c([n]41)=N/C1=NC(=N\3)/c3ccccc31)c1ccccc1\2` [chloraluminum phthalocyanine], the “solubility in polar, protic solvents such as methanol” value in series [1] was “but not chloraluminum phthalocyanine is soluble in polar, protic solvents”.
For the compound `[OH][Al]1[n]2c3c4ccccc4c2N=C2N=C(N=c4c5ccccc5c([n]41)=NC1=NC(=N3)c3ccccc31)c1ccccc12` [aluminum phthalocyanine, reference compound], the solubility in water entry in series [1] (water) was “poorly soluble in water”. Moreover, in series [3], the Stokes shift stood at 330 nm.
